Experimental data from patent US10532999B2 (priority 2012, dated 2020).
Several values for one entry are separate records, joined by “and”; a condition that tells them apart may be missing. Equal values may be shown once. Read-outs that look alike come from different tables or passages of the source.

Legend:
[1] = Chemical stability of ML336 with or without dithiothreitol (DTT), LCMS; conditions: for Averaged Percent ML336 Remaining after 8 h / Percent ML336 Remaining after 8 h: 10 μM in PBS pH 7.4 (1% DMSO), room temperature; for Percent ML336 Remaining after 8 h: single runs
VEEV TC-83 = assay: microbe, parasite or virus in culture; type: cell-based; conditions: Venezuelan equine encephalitis virus, Vero 76, read-out: Assay provided VEEV CPE inhibition
CYP450 (2C9, 2C19) = conditions: noted liability, Table 2, cited from earlier work
VEEV = conditions: read-out: Reported VEEV CPE inhibition; cited from earlier work
[2] = ML336 without nucleophile (control)

In the case of `CN1CCN(C)/C(=N/c2ccc([N+](=O)[O-])cc2C(=O)Nc2ccccc2)C1` [ML336, (E)-2-((1,4-dimethylpiperazin-2-ylidene)amino)-5-nitro-N-phenylbenzamide], the “adducts detected by LCMS” value ([1]; 50 μM DTT, sampled every hour for eight hours) is reported as “no adducts were detected”, the “Averaged Percent ML336 Remaining after 8 h” value ([1]; ML336 with 5X DTT (50 μM)) is reported as 98.96% and the “Percent ML336 Remaining after 8 h” value ([1]; ML336 with 5X DTT (50 μM)) is reported as 100.36% and 97.55%. For the same compound, the “Averaged Percent ML336 Remaining after 8 h” value [1, 2] was 93.92% and the “Percent ML336 Remaining after 8 h” value [1, 2] was 96.13% and 91.70%.

In the case of `NC(=O)c1ncn([C@@H]2O[C@H](CO)[C@@H](O)[C@H]2O)n1` [ribavirin], the IC50 (VEEV TC-83) is reported as 126 µM.

In the case of `Cc1cc(Cc2cc(C)cc(C(C)(C)C)c2O)c(O)c(Cc2cc(C)cc(C(C)(C)C)c2O)c1` [antioxidant 80], the IC50 (VEEV TC-83) is given as > 50 µM, the “CYP450 (2C9, 2C19) inhibition” value (CYP450 (2C9, 2C19)) is given as ~3 µM and the “CYP450 (2C9, 2C19) inhibition” value (CYP450 (2C9, 2C19); listed as Antioxidant 80) is given as “about 3 μM”.

For `O=C(O)Cc1ccccc1Nc1c(Cl)cccc1Cl` [diclofenac sodium], the IC50 (VEEV TC-83) was > 50 µM.

With `NS(=O)(=O)c1ccc(-n2c(-c3ccccc3)nc3ccc(Br)cc3c2=O)cc1` [quinazolinone] the IC50 (VEEV TC-83) was > 25 µM.

For `COc1cc(NC(=O)Nc2cccc(CNC(=O)O[C@H]3CCOC3)c2)ccc1-c1cnco1` [VX-497], the IC50 (VEEV) is given as 19.2 µM.
